Reference: publication PMC12186253, “Grafted Coiled-Coil Peptides as Multivalent Scaffolds for Protein Recognition” (ACS Chemical Biology, 2025)

Experiments:
[1] = target: T1, FAM-Ahx-BID/MCL-1 complex (Homo sapiens, UniProt Q07820); experiment: Fluorescence anisotropy competition assay, FAM-Ahx-BID/MCL-1; type: binding
T1 construct: residues 172 – 327; His6-SUMO (N, cleaved yes); made in house; host or cells: E. coli BL21-Gold (pET28a)
Text: (1 picture or pasted object on this page, not shown here) […]

[2] = CD thermal unfolding of individual components (peptide or protein alone); type: physicochemical; conditions: CD at 222 nm, 5-85 °C, 20 °C/h; 25 μM in 20 mM phosphate, 100 mM NaCl, pH 7.4
Procedure: CD spectroscopy was used to investigate the secondary structures and thermal stabilities of the designed peptides alone and in the presence of MCL-1.
prepared at 200 – 500 µM in deionized water from solid peptides) were diluted into phosphate
buffer (20 mM phosphate, 100 mM NaCl, pH 7.4) to a final concentration of 25 µM for individual
components, and at a 1:1 ratio (final concentration of all components set as 50 µM for
homomeric species and 75 µM for heterodimeric complex with MCL-1, or 1:1:1 ratio) of the
number of binding sites on the coiled-coil peptides to BH3 binding domain on the protein.
Wavelength spectra were collected (average of 5 scans, from 190 – 300 nm) to evaluate
secondary structure of the individual components and the peptide:protein complexes at 20 °C.
Thermal unfolding experiments monitored the α helical minima at 222 nm from 5 – 85 °C with
a heating ramp of 20 °C/h , and Tm was calculated from the mid -point of unfolding transitions.
A background spectrum of the buffer alone was also collected and subtracted from raw sample
ellipticity values during data conversion.
Data were collected on an APP Chirascan CD spectropolarimeter using 1 mm pathlength
quartz cuvettes. Raw ellipticity data w ere converted to mean residue ellipticity (MRE) using
MRE = (([θ]λ – [θ]0) x Mw) / (n x l x c) […]
curves, the fraction folded was calculated with the following equation […]

T1 sequence (Q07820 172-327, one chain of several): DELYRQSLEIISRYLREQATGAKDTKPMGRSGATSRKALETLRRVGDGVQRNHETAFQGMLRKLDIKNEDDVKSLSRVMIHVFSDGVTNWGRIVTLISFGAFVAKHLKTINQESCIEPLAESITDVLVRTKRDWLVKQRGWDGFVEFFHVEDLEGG

Substance | IC50 [1] [µM] | Tm (thermal unfolding midpoint), component alone [2] [°C]
Ac-GEILAIKQEILRIIGDNVAIKQEILNIKQGYG-NH2 [CC-Tri_E1] | 68 ± 16 | 
Ac-GEILALKQEILRLIGDNVALKQEILNLKQGYG-NH2 [CC-Di_E1] | 0.8 ± 0.1 | 
Ac-GELLAIKQELLRIIGDLVAIKQELLNIKQGYG-NH2 [CC-Tet_E1] | 7.4 ± 0.8 | 
MCL-1: α-helix-binding antiapoptotic target protein, residues 172 – 327, expressed in E. coli |  | 62
